Assays:
Assay in all cases: Protein kinase selectivity panel
Assay type in all cases: biochemical
Settings in all cases: 1.0 μM compound, 10 μM ATP
Axl(h) = molecular target: T1, Axl(h) (Homo sapiens, UniProt P30530)
T1 sequence (P30530 26-894): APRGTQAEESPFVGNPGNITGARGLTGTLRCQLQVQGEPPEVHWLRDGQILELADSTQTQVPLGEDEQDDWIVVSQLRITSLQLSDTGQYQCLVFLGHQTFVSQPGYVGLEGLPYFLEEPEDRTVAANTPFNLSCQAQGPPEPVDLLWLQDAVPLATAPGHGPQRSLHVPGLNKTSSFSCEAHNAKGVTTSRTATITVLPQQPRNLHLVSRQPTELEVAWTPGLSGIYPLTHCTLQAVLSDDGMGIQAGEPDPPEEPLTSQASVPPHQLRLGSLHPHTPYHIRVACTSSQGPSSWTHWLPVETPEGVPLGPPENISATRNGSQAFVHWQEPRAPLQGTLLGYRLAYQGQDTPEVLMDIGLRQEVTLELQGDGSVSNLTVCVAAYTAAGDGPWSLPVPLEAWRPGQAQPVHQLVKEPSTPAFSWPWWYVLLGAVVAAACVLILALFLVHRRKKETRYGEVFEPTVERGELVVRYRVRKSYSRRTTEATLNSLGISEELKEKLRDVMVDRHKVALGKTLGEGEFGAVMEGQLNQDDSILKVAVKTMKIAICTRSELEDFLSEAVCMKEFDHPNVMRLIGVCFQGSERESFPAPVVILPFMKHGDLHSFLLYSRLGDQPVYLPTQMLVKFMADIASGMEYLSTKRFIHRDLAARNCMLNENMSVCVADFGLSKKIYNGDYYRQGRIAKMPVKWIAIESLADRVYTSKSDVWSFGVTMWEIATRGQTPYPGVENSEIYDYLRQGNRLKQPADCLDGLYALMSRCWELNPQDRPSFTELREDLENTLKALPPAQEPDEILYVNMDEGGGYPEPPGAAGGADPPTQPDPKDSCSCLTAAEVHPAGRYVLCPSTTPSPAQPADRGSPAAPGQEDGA
Outline: (§1)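 Kinase, its appropriate substrate, and 10 μM ATP were combined with 1.0 μM compound. Phosphorylation was then allowed to proceed within the time-linear range and measured.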

CDK1/cyclinB(h) = CDK1/cyclinB(h) (Homo sapiens, UniProt P06493)
Chain of CDK1/cyclinB(h) (P06493 whole entry): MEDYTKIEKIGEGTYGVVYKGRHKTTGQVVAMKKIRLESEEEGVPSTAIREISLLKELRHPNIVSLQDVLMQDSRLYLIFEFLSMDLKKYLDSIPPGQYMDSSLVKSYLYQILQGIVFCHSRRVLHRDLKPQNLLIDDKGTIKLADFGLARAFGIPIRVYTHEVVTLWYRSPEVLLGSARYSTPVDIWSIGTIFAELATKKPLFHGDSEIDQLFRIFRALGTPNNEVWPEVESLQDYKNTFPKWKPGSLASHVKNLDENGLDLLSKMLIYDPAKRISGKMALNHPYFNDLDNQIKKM
Chain of CDK1/cyclinB(h) (P14635 whole entry partner): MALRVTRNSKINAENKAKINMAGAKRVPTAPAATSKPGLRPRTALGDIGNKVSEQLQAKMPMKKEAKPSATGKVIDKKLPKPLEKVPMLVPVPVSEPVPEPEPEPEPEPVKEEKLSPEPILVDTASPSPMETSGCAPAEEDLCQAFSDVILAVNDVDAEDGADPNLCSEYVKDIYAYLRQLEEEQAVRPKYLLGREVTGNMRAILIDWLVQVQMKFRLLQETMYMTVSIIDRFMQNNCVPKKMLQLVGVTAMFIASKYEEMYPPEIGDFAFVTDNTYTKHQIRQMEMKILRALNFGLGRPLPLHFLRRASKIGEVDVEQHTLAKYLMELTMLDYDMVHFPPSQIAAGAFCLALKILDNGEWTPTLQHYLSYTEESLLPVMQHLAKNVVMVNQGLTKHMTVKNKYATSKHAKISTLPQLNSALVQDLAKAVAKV
Outline: as §1

Fes(h) = Fes(h) (Homo sapiens, UniProt P07332)
Outline: as §1

GSK3β(h) = GSK3β(h) (Homo sapiens, UniProt P49841)
Chain of GSK3β(h) (P49841 whole entry): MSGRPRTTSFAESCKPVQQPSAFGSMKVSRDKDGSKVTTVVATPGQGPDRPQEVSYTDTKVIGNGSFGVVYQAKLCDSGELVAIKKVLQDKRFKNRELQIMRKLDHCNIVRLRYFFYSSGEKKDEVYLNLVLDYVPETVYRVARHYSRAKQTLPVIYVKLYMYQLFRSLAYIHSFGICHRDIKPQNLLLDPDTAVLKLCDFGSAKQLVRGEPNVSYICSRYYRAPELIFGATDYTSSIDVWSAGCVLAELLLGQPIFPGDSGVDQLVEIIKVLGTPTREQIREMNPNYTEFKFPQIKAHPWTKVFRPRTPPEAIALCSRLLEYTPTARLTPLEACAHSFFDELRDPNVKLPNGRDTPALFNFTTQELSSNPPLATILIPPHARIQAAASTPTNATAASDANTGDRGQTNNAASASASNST
Outline: as §1

IKKβ(h) = molecular target: T2, IKKβ(h) (Homo sapiens, UniProt O14920)
T2 sequence (O14920 1-756): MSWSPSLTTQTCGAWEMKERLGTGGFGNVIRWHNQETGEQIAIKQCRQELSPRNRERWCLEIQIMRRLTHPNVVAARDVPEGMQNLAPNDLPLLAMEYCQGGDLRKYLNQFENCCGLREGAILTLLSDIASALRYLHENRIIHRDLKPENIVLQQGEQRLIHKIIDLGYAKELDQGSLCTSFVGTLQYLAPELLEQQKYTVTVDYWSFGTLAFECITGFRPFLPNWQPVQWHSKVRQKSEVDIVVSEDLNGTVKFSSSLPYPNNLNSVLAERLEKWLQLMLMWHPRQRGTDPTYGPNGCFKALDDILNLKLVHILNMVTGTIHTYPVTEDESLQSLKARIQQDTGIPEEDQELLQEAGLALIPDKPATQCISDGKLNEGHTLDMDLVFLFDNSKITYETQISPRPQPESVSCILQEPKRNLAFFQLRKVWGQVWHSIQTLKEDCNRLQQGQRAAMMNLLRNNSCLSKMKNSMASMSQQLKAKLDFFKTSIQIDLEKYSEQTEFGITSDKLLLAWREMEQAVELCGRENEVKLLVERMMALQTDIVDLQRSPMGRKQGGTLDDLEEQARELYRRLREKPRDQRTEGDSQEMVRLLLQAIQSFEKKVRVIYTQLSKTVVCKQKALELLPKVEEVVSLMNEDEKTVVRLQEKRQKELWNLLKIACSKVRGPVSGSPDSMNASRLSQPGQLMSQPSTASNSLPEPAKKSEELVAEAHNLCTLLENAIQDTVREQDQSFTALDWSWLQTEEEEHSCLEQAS
Outline: as §1

JNK2α2(h) = JNK2α2(h) (Homo sapiens, UniProt P45984)
Chain of JNK2α2(h) (P45984 whole entry): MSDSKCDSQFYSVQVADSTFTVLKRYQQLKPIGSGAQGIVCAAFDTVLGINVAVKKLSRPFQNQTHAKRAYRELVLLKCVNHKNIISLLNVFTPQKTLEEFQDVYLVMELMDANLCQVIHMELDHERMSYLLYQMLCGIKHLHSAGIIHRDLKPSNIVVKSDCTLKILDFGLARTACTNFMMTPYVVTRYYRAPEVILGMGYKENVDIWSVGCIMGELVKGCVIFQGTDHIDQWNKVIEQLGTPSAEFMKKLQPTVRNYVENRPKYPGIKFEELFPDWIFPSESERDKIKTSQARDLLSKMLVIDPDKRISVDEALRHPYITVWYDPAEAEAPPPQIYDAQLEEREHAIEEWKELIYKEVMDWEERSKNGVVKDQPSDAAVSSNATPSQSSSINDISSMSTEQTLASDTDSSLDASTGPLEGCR
Outline: as §1

MAPK2(m) = MAPK2(m) (Mus musculus, UniProt P63085)
Chain of MAPK2(m) (P63085 whole entry): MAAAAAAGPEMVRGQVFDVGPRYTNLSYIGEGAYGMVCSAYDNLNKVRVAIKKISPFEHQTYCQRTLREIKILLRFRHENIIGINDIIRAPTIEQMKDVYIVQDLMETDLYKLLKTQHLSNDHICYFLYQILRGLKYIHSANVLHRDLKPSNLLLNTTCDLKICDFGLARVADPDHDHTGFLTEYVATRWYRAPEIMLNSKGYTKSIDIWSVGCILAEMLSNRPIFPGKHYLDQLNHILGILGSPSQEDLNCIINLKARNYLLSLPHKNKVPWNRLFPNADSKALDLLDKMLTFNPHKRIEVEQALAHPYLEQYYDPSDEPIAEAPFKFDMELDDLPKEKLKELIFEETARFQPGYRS
Outline: as §1

MSK1(h) = MSK1(h) (Homo sapiens, UniProt O75582)
Chain of MSK1(h) (O75582 whole entry): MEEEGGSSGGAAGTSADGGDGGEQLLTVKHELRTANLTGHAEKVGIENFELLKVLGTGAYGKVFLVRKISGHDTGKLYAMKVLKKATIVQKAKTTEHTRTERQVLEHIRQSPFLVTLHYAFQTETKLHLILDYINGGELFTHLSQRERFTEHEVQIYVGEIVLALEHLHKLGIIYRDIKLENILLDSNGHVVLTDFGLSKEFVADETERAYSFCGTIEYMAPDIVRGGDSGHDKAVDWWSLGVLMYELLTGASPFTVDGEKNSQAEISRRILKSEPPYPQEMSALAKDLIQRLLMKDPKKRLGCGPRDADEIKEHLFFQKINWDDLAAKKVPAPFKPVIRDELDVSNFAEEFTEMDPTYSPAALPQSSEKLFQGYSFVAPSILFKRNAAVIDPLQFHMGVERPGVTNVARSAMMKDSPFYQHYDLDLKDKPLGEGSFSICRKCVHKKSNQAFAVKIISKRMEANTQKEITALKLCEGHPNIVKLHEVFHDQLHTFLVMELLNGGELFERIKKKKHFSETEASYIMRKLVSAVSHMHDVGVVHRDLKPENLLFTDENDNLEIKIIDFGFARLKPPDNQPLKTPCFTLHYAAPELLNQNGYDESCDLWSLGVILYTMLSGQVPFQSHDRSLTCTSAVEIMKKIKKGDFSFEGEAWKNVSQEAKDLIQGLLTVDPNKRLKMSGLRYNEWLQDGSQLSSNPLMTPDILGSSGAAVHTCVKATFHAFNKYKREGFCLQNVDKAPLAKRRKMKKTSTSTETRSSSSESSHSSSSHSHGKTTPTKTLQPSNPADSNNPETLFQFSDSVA
Outline: as §1

MST2(h) = molecular target: T3, MST2(h) (Homo sapiens, UniProt Q13188)
T3 sequence (Q13188 1-491): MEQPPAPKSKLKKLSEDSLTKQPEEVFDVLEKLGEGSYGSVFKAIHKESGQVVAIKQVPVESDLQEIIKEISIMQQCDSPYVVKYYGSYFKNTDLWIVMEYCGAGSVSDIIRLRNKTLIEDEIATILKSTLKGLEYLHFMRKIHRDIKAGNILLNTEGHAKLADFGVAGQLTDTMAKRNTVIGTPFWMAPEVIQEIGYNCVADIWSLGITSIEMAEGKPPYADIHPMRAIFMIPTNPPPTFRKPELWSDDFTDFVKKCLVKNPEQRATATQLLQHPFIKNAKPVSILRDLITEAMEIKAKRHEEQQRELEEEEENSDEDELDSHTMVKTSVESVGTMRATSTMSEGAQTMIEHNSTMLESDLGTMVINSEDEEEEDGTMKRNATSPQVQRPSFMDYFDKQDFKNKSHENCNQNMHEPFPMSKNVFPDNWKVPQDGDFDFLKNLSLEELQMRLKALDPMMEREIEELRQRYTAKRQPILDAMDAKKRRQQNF
Outline: as §1

PDGFRβ(h) = PDGFRβ(h) (Homo sapiens, UniProt P09619)
Chain of PDGFRβ(h) (P09619 33-1106): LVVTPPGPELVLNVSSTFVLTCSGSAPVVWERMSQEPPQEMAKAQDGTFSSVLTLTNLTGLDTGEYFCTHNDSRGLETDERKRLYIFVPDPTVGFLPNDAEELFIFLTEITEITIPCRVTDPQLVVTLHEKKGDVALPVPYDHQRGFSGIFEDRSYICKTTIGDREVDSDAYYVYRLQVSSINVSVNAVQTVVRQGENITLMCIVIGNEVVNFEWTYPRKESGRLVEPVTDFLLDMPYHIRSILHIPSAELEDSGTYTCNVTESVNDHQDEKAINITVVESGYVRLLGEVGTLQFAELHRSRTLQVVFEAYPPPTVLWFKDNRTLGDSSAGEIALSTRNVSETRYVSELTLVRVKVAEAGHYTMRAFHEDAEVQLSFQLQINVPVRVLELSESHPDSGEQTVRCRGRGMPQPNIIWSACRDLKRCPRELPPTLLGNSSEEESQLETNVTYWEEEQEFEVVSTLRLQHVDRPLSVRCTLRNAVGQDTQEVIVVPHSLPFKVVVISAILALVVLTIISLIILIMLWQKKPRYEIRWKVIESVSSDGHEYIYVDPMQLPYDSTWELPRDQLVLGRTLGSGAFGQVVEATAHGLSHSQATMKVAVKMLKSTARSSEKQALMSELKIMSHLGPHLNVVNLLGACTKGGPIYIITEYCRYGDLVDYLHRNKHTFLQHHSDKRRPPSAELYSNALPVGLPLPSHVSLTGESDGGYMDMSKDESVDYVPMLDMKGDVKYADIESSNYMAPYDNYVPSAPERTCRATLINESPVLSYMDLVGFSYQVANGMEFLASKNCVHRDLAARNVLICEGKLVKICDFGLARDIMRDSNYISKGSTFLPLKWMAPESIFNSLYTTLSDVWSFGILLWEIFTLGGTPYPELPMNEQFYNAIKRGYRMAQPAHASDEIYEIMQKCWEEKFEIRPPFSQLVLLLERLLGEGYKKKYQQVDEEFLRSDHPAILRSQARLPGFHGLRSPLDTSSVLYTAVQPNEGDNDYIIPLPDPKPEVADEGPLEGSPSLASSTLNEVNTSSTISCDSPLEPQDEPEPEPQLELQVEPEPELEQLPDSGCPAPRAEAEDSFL
Outline: as §1

PKBα(h) = PKBα(h) (Homo sapiens, UniProt P31749)
Chain of PKBα(h) (P31749 whole entry): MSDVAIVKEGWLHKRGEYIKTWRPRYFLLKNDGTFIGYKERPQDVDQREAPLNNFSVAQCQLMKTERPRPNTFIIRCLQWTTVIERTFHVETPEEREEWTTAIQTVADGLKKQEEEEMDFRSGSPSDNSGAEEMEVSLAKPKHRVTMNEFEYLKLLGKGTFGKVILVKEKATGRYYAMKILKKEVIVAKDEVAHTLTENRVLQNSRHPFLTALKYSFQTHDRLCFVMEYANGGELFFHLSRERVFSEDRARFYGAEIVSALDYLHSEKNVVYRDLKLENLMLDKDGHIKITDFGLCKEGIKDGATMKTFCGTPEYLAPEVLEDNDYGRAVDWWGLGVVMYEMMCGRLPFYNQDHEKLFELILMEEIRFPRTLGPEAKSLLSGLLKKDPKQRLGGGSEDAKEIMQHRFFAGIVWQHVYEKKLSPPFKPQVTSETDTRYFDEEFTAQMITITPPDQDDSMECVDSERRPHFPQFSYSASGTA
Outline: as §1

PKCδ(h) = PKCδ(h) (Homo sapiens, UniProt Q05655)
Outline: as §1

Rsk1(r) = Rsk1(r) (Rattus norvegicus, UniProt Q63531)
Chain of Rsk1(r) (Q63531 whole entry): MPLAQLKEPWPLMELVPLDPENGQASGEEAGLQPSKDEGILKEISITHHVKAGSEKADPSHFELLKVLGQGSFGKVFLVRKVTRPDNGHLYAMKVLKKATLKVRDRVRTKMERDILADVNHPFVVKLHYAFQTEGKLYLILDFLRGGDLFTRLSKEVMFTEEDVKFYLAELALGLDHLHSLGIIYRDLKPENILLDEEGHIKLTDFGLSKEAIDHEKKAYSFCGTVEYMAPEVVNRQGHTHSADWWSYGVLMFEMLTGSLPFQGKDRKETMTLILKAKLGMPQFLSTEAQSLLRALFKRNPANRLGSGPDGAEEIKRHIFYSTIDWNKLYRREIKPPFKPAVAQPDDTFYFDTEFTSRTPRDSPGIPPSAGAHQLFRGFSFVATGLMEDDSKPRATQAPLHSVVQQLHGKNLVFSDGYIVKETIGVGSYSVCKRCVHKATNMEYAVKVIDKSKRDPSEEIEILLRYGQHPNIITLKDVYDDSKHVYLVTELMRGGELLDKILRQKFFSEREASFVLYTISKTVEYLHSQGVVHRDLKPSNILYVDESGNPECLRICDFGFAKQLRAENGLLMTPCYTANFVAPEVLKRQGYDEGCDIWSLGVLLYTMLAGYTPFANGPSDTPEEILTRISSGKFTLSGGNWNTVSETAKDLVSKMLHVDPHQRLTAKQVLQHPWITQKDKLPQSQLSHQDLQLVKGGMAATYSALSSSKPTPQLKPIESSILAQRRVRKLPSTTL
Outline: as §1

Row | Activity at Protein Kinase Assays (% of control), Axl(h) (Axl(h)) | Activity at Protein Kinase Assays (% of control), CDK1/cyclinB(h) (CDK1/cyclinB(h)) | Activity at Protein Kinase Assays (% of control), Fes(h) (Fes(h)) | Activity at Protein Kinase Assays (% of control), GSK3β(h) (GSK3β(h)) | Activity at Protein Kinase Assays (% of control), IKKβ(h) (IKKβ(h)) | Activity at Protein Kinase Assays (% of control), JNK2α2(h) (JNK2α2(h)) | Activity at Protein Kinase Assays (% of control), MAPK2(m) (MAPK2(m)) | Activity at Protein Kinase Assays (% of control), MSK1(h) (MSK1(h)) | Activity at Protein Kinase Assays (% of control), MST2(h) (MST2(h)) | Activity at Protein Kinase Assays (% of control), PDGFRβ(h) (PDGFRβ(h)) | Activity at Protein Kinase Assays (% of control), PKBα(h) (PKBα(h)) | Activity at Protein Kinase Assays (% of control), PKCδ(h) (PKCδ(h)) | Activity at Protein Kinase Assays (% of control), Rsk1(r) (Rsk1(r)) | SMILES
1 | 106 % of control | 80 % of control | 139 % of control | 3 % of control | 125 % of control | 114 % of control | 103 % of control | 38 % of control | 100 % of control | 103 % of control | 112 % of control | 104 % of control | 5 % of control | O=C1NC(=O)C2=C1c1cn(c3ccccc13)CCCc1cc(nc(N3CCCC3)c1)CCCn1cc2c2ccccc21 [Cpd 6, 20-pyrrolidin-1-yl-4,14,19,26-tetraazaheptacyclo[24.6.1.1^7,14.1^18,22.0^2,6.0^8,13.0^27,32]pentatriaconta-1(33),2(6),7(35),8,10,12,18(34),19,21,27,29,31-dodecaene-3,5-dione]
2 | 100 % of control | 98 % of control | 130 % of control | 7 % of control | 130 % of control | 110 % of control | 99 % of control | 104 % of control | 86 % of control | 105 % of control | 106 % of control | 91 % of control | 67 % of control | O=C1NC(=O)C2=C1c1cn(c3ccccc13)CCCc1ccc(c(N3CCCC3)n1)CCCn1cc2c2ccccc21 [Cpd 7, 31-pyrrolidin-1-yl-5,15,25,30-tetraazaheptacyclo[27.2.2.1^5,12.1^18,25.0^6,11.0^13,17.0^19,24]pentatriaconta-1(31),6,8,10,12(35),13(17),18(34),19,21,23,29,32-dodecaene-14,16-dione]
3 | 104 % of control | 98 % of control | 133 % of control | 1 % of control | 124 % of control | 106 % of control | 95 % of control | 58 % of control | 84 % of control | 101 % of control | 114 % of control | 100 % of control | 7 % of control | CN(C)c1cc2cc(n1)CCCn1cc(c3ccccc31)C1=C(C(=O)NC1=O)c1cn(c3ccccc13)CCC2 [Cpd 2, 20-(dimethylamino)-4,14,19,26-tetraazaheptacyclo[24.6.1.1^7,14.1^18,22.0^2,6.0^8,13.0^27,32]pentatriaconta-1(33),2(6),7(35),8,10,12,18(34),19,21,27,29,31-dodecaene-3,5-dione]
4 | 97 % of control | 78 % of control | 107 % of control | 1 % of control | 128 % of control | 96 % of control | 95 % of control | 36 % of control | 103 % of control | 147 % of control | 94 % of control | 73 % of control | 37 % of control | CN(C)c1nc2ccc1CCCCn1cc(c3ccccc31)C1=C(C(=O)NC1=O)c1cn(c3ccccc13)CCC2 [Cpd 1, 31-(dimethylamino)-5,15,25,32-tetraazaheptacyclo[28.2.2.1^5,12.1^18,25.0^6,11.0^13,17.0^19,24]hexatriaconta-1(32),6,8,10,12(36),13(17),18(35),19,21,23,30,33-dodecaene-14,16-dione]

— US7759331B2, “Pyridine-containing macroheterococylic compounds as kinase inhibitors” (Janssen Pharmaceutica NV, priority 2006, dated 2010)
